Test results reported in the RepoRT retention time repository.

Assay: RP, Waters ACQUITY UPLC BEH C18, 50 × 2.1 mm, 1.7 µm, 40 °C, 0.6 mL/min, estimated dead time 0.18 min; A: water + 0.1% formic acid, pH 3; B: acetonitrile + 0.1% formic acid, pH 3; gradient (min/%B) 0/5 7/100 8/100
Details: stereoisomer not certain

## COc1c2occc2cc2ccc(=O)oc12 [9-methoxy-7H-furo[3,2-g]chromen-7-one]
  LC retention time: 2.49 min

## O=C1c2c(O)cc(O)c(C3C(=O)c4c(O)cc(O)cc4OC3c3ccc(O)cc3)c2OC(c2ccc(O)c(O)c2)C1O (stereo unspecified)
  LC retention time: 0.319 min

## COC1C2(O)COC3=CC(=O)C=CC31c1cc(O)c(O)cc1C2 (stereo unspecified)
  LC retention time: 1.08 min

## CC12CCC(C(OC(=O)/C=C/c3ccc(O)cc3)C1)C2(C)C (stereo unspecified)
  LC retention time: 4.89 min

## COc1cc2c(cc1O)CC1NCCc3cc(O)c(OC)c-2c31 (stereo unspecified)
  LC retention time: 1.11 min

## CC(C)=CC(O)C[C@@H](C)[C@H]1CC[C@@]2(C)C3C(=O)C=C4C(CCC(O)C4(C)C)[C@]3(C)CC[C@]12C (stereo partly specified)
  LC retention time: 4.38 min

## CC[C@@H]1C(=O)N2CCc3c([nH]c4ccccc34)[C@H]2CC1/C(=C\OC)C(=O)OC (stereo partly specified)
  LC retention time: 2.38 min

## CC1CC2CC(=O)C3CCCN4CCCC2C34C1 (stereo unspecified)
  LC retention time: 1.06 min

## CCCC(CC(=O)O)C1=C2OC(=O)C(C(=O)CC(C)C)=C(O)C2(CC=C(C)C)CC(CC=C(C)C)C1(C)C (stereo unspecified)
  LC retention time: 6.51 min

## C/C(=C\CC/C=C(\C)CC/C=C(\C)CCC(O)C(C)(C)O)CC/C=C(\C)CCC(O)C(C)(C)O (stereo unspecified)
  LC retention time: 5.34 min

## CCCCCCCCCCCCCCC[C@@H]1CCC[C@@H](C)N1 [(2R,6R)-2-methyl-6-pentadecylpiperidine]
  LC retention time: 5.12 min

## COc1ccc(C2Oc3c(c(O)cc(O)c3C3C(=O)c4c(O)cc(O)cc4OC3c3ccc(O)cc3)C(=O)C2O)cc1O (stereo unspecified)
  LC retention time: 1.69 min

## Cc1ccc2c(c1)C1(C(C)C)CCC2(C)OO1 (stereo unspecified)
  LC retention time: 4.34 min

## CC1CCC2(C)C(CCC(O)C2(C)O)C1(C)CC(O)c1ccoc1 (stereo unspecified)
  LC retention time: 5.61 min

## C=C(C(=O)C(O)C(C)C1C(OC(C)=O)CC2(C)C3CCC4C(C)C(=O)C=CC45CC35CCC12C)C(C)C (stereo unspecified)
  LC retention time: 5.56 min

## C=C1C(=O)C23C(O)CC4C(C)(C)CCCC4(COC(C)=O)C2C(O)CC1C3O (stereo unspecified)
  LC retention time: 2.42 min

## CC(O)c1cncc2c(=O)n3c(cc12)-c1[nH]c2ccccc2c1CC3 (stereo unspecified)
  LC retention time: 3.25 min

## CCCCCCCCCCCCCCC(O)C(O)CCC(O)C1CCC(CCCCCC(O)CC2=CC(C)OC2=O)O1 (stereo unspecified)
  LC retention time: 6.01 min

## CCC1CC2CC3(C(=O)OC)c4[nH]c5ccccc5c4CCN(C2OC)C13 (stereo unspecified)
  LC retention time: 1.77 min

## COC(=O)C1=C2CCC3=C2C2(C1)C1(C)CCC4C(C)CN(CC1CC3)C42O (stereo unspecified)
  LC retention time: 2.17 min

## COc1cc2c3c(c1OC)Oc1ccc(cc1)CC1c4c(cc(OC)c(OC)c4Oc4ccc(cc4)CC3N(C)CC2)CCN1C (stereo unspecified)
  LC retention time: 1.79 min

## COc1cc2c3cc1Oc1c(cccc1OC)CC1c4c(cc(O)c(OC)c4Oc4cccc(c4)CC3N(C)CC2)CCN1C (stereo unspecified)
  LC retention time: 1.59 min

## CC1=CC2CC(C)C(CO)/C=C(\C)C(O)C(=O)/C=C(\C)CCC12 (stereo unspecified)
  LC retention time: 4.1 min

## C[C@@H]1CC2(N=CCS2)[C@]2(O)OC3C[C@@]4(C=O)C(CCC5C4CC[C@]4(C)C(C6=CC(=O)OC6)CC(O)[C@]54O)CC3OC2O1 (stereo partly specified)
  LC retention time: 0.41 min

## CCC(C)C(=O)C1=C(O)C2(CC=C(C)C)CC(CC=C(C)C)C(C)(C)C(C(CC(=O)O)c3ccccc3)=C2OC1=O (stereo unspecified)
  LC retention time: 6.36 min

## CCCCCCCCCCCCC[C@@H]1CCC[C@@H](C)N1 [(2R,6R)-2-methyl-6-tridecylpiperidine]
  LC retention time: 4.58 min

## CCC1CN(C)CC2Cc3c([nH]c4ccccc34)C(=O)CC12 (stereo unspecified)
  LC retention time: 1.71 min

## CC(C)=CCc1c(O)cc2oc(-c3ccc(O)cc3)c(O)c(=O)c2c1O
  LC retention time: 3.98 min

## COc1cc2c3cc1Oc1c(cccc1OC)CC1c4c(cc(OC)c(OC)c4Oc4cccc(c4)CC3N(C)CC2)CCN1C (stereo unspecified)
  LC retention time: 1.7 min

## C[C@@H]1CC2(NCCS2)[C@]2(O)OC3C[C@@]4(C=O)C(CCC5C4CC[C@]4(C)C(C6=CC(=O)OC6)CC[C@]54O)CC3OC2O1 (stereo partly specified)
  LC retention time: 0.611 min

## C=C1COC(=O)C12C[C@@]1(C)C([C@@H](OC(=O)/C(C)=C\C)CC[C@@H]1C)[C@H]2OC(C)=O (stereo partly specified)
  LC retention time: 4.16 min

## C/C=C/C(CC1C(=O)C=CC1(O)CCCCCCCC(=O)O)OC(C)=O (stereo unspecified)
  LC retention time: 2.88 min

## C/C=C1/CN2CCc3c([nH]c4ccccc34)[C@@](CO)(C(=O)OC)[C@H]1CC2
  LC retention time: 1.32 min

## COc1cc(/C=C/c2ccc(OCC=C(C)C)cc2)cc(OC)c1
  LC retention time: 5.37 min

## C=C(C(=O)C(O)C(C)C1C(OC(C)=O)CC2(C)C3CC(O)C4C(C)C(=O)C=CC45CC35CCC12C)C(C)CO (stereo unspecified)
  LC retention time: 3.41 min

## CC[C@@]12CC(C(=O)OC)=C3Nc4ccccc4[C@@]34CCN(C[C@H]3O[C@H]31)C24 (stereo partly specified)
  LC retention time: 1.96 min

## CCC1C2CCCCN3C(C4CC(C)C(=O)O4)CC(C4C(C)C(=O)OC14)C23 (stereo unspecified)
  LC retention time: 1.55 min

## CC(C)(O)/C=C/C(=O)[C@](C)(O)[C@H]1[C@H](O)C[C@@]2(C)C3CC=C4C(CC(=O)C(O)C4(C)C)[C@]3(C)C(=O)C[C@]12C (stereo partly specified)
  LC retention time: 2.9 min

## CC[C@H]1NC2C[C@@]3(C(=O)N(OC)c4ccccc43)C3CC1C2CO3 (stereo partly specified)
  LC retention time: 1.79 min

## CC[C@H]1C[C@@H]2CN3CCc4c([nH]c5ccccc45)[C@](C(=O)OC)(C2)[C@H]13
  LC retention time: 2.05 min

## C=C[C@H]1CN2CCC3c4ccccc4NC3[C@H]2C[C@@H]1/C(=C\OC)C(=O)OC (stereo partly specified)
  LC retention time: 2.64 min

## CN1CCc2cc3c(c4c2C1CC41C=CC(=O)C=C1)OCO3 (stereo unspecified)
  LC retention time: 1.08 min

## COc1cc(CC(CO)C(CO)Cc2ccc(O)c(OC)c2)ccc1O (stereo unspecified) [2,3-bis[(4-hydroxy-3-methoxyphenyl)methyl]butane-1,4-diol]
  LC retention time: 0.28 min

## COc1cc2c(cc1O)C(Cc1ccc(O)cc1)NCC2 (stereo unspecified)
  LC retention time: 1.05 min

## C=C1[C@@H](O)C[C@H]2[C@](C)(CO)CCC[C@]2(C)[C@H]1CC1C(C)=CCC2C(=O)C(OC)=CC(=O)C21c1cc(=O)c2c(O)cc(O)cc2o1 (stereo partly specified)
  LC retention time: 3.02 min

## C=C1C(=O)O[C@@H]2C[C@@]3(C)CCCC(=C)[C@@H]3C[C@H]12
  LC retention time: 4.2 min

## CC1(C(=O)O)CCCC2(C)C3CCC4CC3(C=C4C=O)CCC12 (stereo unspecified)
  LC retention time: 4 min

## CC1(C(=O)O)CCCC2(C)C3CCC4CC3(C=C4CO)CCC12 (stereo unspecified)
  LC retention time: 3.51 min

## COC(=O)C1=COC(C)C2CN3CCC4(C(=O)Nc5ccccc54)C3CC12 (stereo unspecified)
  LC retention time: 1.69 min

## COc1ccc([C@@]23Oc4cc5c(c(OC)c4[C@]2(O)[C@H](O)[C@H](C(=O)N(C)C)[C@H]3c2ccccc2)OCO5)cc1
  LC retention time: 3.26 min

## C=C(C(=O)C(O)C(C)C1C(OC(C)=O)CC2(C)C3CCC4C(C)C(=O)CCC45CC35CCC12C)C(C)CO (stereo unspecified)
  LC retention time: 4.6 min

## COc1c(-c2c(C)cc(OC)c3c(OC)cccc23)c(O)cc2c1C(C)NC(C)C2 (stereo unspecified)
  LC retention time: 2.1 min

## CC(C)=CCC1CC2(CC=C(C)C)C(O)=C(C(=O)CC(C)C)C(=O)OC2=C(C(CC(=O)O)c2ccccc2)C1(C)C (stereo unspecified)
  LC retention time: 6.29 min

## CC1=C(O)C(=O)C=C2C1=CC=C1[C@@]2(C)CC[C@@]2(C)[C@@H]3C[C@](C)(C(=O)O)CC[C@]3(C)CC[C@]12C
  LC retention time: 5.33 min

## CN1CCc2ccc(O)c3c2C1Cc1cc2c(cc1O3)OCO2 (stereo unspecified)
  LC retention time: 1.4 min

## C/C=C1/C2C=C(C)CC1(N)c1ccc(=O)[nH]c1C2 (stereo unspecified)
  LC retention time: 0.913 min

## CC1=C2CC3(C)C(C)CCCC3CC2(O)OC1=O (stereo unspecified)
  LC retention time: 3.6 min

## CC1(C)CCC[C@]2(CO)C1CC[C@@]13C[C@@H](CCC12)[C@@](O)(COC(=O)/C=C/c1ccc(O)c(O)c1)C3 (stereo partly specified)
  LC retention time: 3.4 min

## CCN1CC2(COC(=O)c3ccccc3NC(=O)CCC(=O)O)CCC(OC)C34C5CC6C(OC)CC(O)(C5C6OC)C(O)(C(OC)C23)C14 (stereo unspecified)
  LC retention time: 2.22 min

## CCCCCCCCCCCC(=O)OC12CC(C)C3(O)C(C4OC4(CO)C(O)C4(O)C(=O)C(C)=CC43)C1C2(C)C (stereo unspecified)
  LC retention time: 5.96 min

## CCCCCCCCCCCCO[C@@H]1O[C@@H](C)[C@H](O[C@@H]2O[C@@H](C)[C@H](OC(C)=O)[C@@H](O[C@@H]3O[C@@H](C)[C@H](OC(C)=O)[C@@H](O[C@@H]4O[C@@H](C)[C@H](OC(C)=O)[C@@H](O)[C@H]4O)[C@H]3OC(C)=O)[C@H]2O)[C@@H](O)[C@H]1O
  LC retention time: 5.82 min

## Oc1ccc(C2Oc3cc(O)cc4c3C2c2cc(O)cc(O)c2C(c2ccc(O)cc2)C2c3cc(O)cc(O)c3C(c3ccc(O)cc3)C42)cc1 (stereo unspecified)
  LC retention time: 2.23 min

## CC(=O)OC(C)(C)/C=C/C(=O)[C@](C)(O)[C@H]1[C@H](O)C[C@@]2(C)C3CC=C4C(CC(=O)C(O)C4(C)C)[C@]3(C)C(=O)C[C@]12C (stereo partly specified)
  LC retention time: 2.88 min

## COc1cc(O)c2c(c1)C(=O)c1cc(C)cc(O)c1C2=O
  LC retention time: 4.7 min

## CCC(C)C(=O)C1=C(O)C2(CC=C(C)C)CC(CCC(C)(C)NC(C)=O)C(C)(C)C(C(CC(=O)O)c3ccccc3)=C2OC1=O (stereo unspecified)
  LC retention time: 4.87 min

## CC(C)=CC1CC(C2CCC3(C)C4=CCC5C(C)(C)C(=O)CCC5(C)C4CC(C=O)=C23)C(O)O1 (stereo unspecified)
  LC retention time: 4.03 min

## C=CC12CN(C)C3C4COC(C[C@@H]41)[C@]1(C(=O)Nc4ccccc41)C32 (stereo partly specified)
  LC retention time: 1.01 min

## CC(=O)OCC1=C2C(OC(=O)/C=C(/C)COC(C)=O)CC(C)C(=O)CC(=O)C3(C)OC3C2OC1=O (stereo unspecified)
  LC retention time: 3.5 min

## Cn1c(-c2ccc3c(c2)OCO3)cc(=O)c2ccccc21
  LC retention time: 2.43 min

## CCCCCCCCCCCCCC(=O)OC12CC(C)C3(O)C(C4OC4(CO)C(O)C4(O)C(=O)C(C)=CC43)C1C2(C)C (stereo unspecified)
  LC retention time: 6.55 min

## CC(C)(O)/C=C/C(=O)[C@](C)(O)[C@H]1[C@H](O)C[C@@]2(C)[C@@H]3CC=C4[C@@H](C[C@H](O)C(=O)C4(C)C)[C@]3(C)C(=O)C[C@]12C
  LC retention time: 2.77 min

## CC/C=C/CC(O)C(O)/C=C/C(O)CCCCCCCC(=O)O (stereo unspecified) [(10E,15E)-9,12,13-trihydroxyoctadeca-10,15-dienoic acid]
  LC retention time: 2.6 min

## O=C1CC(c2ccc(O)cc2)Oc2c1c(O)cc(O)c2C1C(=O)c2c(O)cc(O)cc2OC1c1ccc(O)cc1 (stereo unspecified)
  LC retention time: 2.36 min

## C=C1C(=O)C23C(O)CC4C(C)(C)CCCC4(CO)C2C(O)CC1C3O (stereo unspecified)
  LC retention time: 1.85 min

## C=C1[C@@H](O)C[C@@H]2[C@](C)(CCC[C@@]2(C)C(=O)O)[C@H]1CC1C(C)=CCC2C(=O)C(OC)=CC(=O)C21c1cc(=O)c2c(O)cc(O)cc2o1 (stereo partly specified)
  LC retention time: 2.95 min

## CCCCCCCCCCC[C@@H]1CCC[C@@H](C)N1 [(2R,6R)-2-methyl-6-undecylpiperidine]
  LC retention time: 4.03 min
